Results: patent publication US20180256673A1, “METHODS FOR TREATING FUNGAL INFECTIONS” (priority 2015, published 2018)
Like-named read-outs stand apart in the source and are kept apart here. Starred links: 1 amine or outer side, 2 acyl side, 3 side chain; linkers in the order of their positions; H or OH if unused. Positions of bridges follow the written chain, without caps; N, C: chain ends. Non-standard residues stand in square brackets, D forms with d. Residues, ends and D or L forms follow the SMILES beside them. *: point of attachment. Orn(4R-OH,5R-OCH2CH2NMe3+) = C[N+](C)(C)CCO[C@@H](N[*:3])[C@H](O)C[C@H](N[*:1])C(=O)[*:2]; pTerphenylCO(4''-OnC5H11) = CCCCCOc1ccc(-c2ccc(-c3ccc(C(=O)*)cc3)cc2)cc1; hTyr(3S-OH,4S-OH) = N[C@H](C(=O)O)[C@H](O)[C@@H](O)c1ccc(O)cc1; Pro(3S-OH,4S-Me) = C[C@H]1CN[C@H](C(=O)O)[C@H]1O; Hyp = O=C(O)[C@@H]1C[C@@H](O)CN1

Assays:
[1] = test system: azole-resistant Candida albicans R357 strain; assay: microbe, parasite or virus in culture; assay type: cell-based; details: Candida albicans
C. albicans NRRL Y-477 = assay: microbe, parasite or virus in culture; assay type: cell-based, Candida albicans; details: Candida albicans
[2] = test system: C. glabrata ATCC 90030, ATCC 2001; assay: microbe, parasite or virus in culture; assay type: cell-based, Candida glabrata; details: Nakaseomyces glabratus
C. krusei ATCC 6258 = assay: microbe, parasite or virus in culture; assay type: cell-based, Candida krusei; details: Pichia kudriavzevii
[3] = test system: C. albicans vaginal isolates; assay: Susceptibility testing of VVC clinical isolates at pH 7 and 4 (CLSI M27-A3); assay type: cell-based, Candida albicans; details: for Number of isolates at MIC 0.06 μg/mL / Number of isolates at MIC 0.125 μg/mL / Number of isolates at MIC 0.25 μg/mL / Number of isolates at MIC 0.5 μg/mL / Number of isolates at MIC 0.03 μg/mL / Number of isolates at MIC […] / Number of isolates at MIC 1 μg/mL: 60 VVC isolates; for MIC90 / MIC: Candida albicans
[4] = test system: C. tropicalis vaginal isolates; assay: as above; assay type: cell-based; details: Candida tropicalis
Candida albicans = assay: Broth microdilution of invasive fungal isolates (CLSI M27-A3/M38-A2); assay type: cell-based; details: 251 isolates

CCCCCOc1ccc(-c2ccc(-c3ccc(C(=O)N[C@H]4C[C@@H](O)[C@@H](OCC[N+](C)(C)C)NC(=O)[C@@H]5[C@@H](O)[C@@H](C)CN5C(=O)[C@H]([C@@H](C)O)NC(=O)[C@H]([C@H](O)[C@@H](O)c5ccc(O)cc5)NC(=O)[C@@H]5C[C@@H](O)CN5C(=O)[C@H]([C@@H](C)O)NC4=O)cc3)cc2)cc1 [Compound 1] ({pTerphenylCO(4''-OnC5H11)}-[Orn(4R-OH,5R-OCH2CH2NMe3+)]T[Hyp][hTyr(3S-OH,4S-OH)]T[Pro(3S-OH,4S-Me)]; lactam 1-C)
MIC [1]: 0.125 µg/mL | MIC (C. albicans NRRL Y-477; NRRLY477, 48 h, NRRL Y-477 P20-1, selecting drug ANID, Fks1 HS1 S645Y, 48 h read): 2 µg/mL | MIC (C. albicans NRRL Y-477; NRRLY477, 48 h, NRRL Y-477 P20-1, selecting drug CMP1, 48 h read): 0.25 µg/mL | MIC (C. albicans NRRL Y-477; NRRLY477, NRRL Y-477 P20-1, selecting drug CAS): 0.03 µg/mL | MIC (C. albicans NRRL Y-477; NRRLY477, read-out: MIC P20, NRRL Y-477, total population after 20 passages with the selecting drug, MIC of selecting drug): 0.25 µg/mL | MIC ([2]; 48 h, ATCC 90030 P20-1, selecting drug ANID, Fks2 HS1 D666I, 48 h read): 2 µg/mL | MIC ([2]; ATCC 2001 P20-2, selecting drug CAS): 2 µg/mL | MIC ([2]; ATCC 2001 P20-2, selecting drug CMP1): 1 µg/mL | MIC ([2]; ATCC 90030 P20-2, selecting drug CMP1): 1 µg/mL | MIC ([2]; read-out: MIC P20, ATCC 2001, total population after 20 passages with the selecting drug, MIC of selecting drug): 1 µg/mL | MIC ([2]; read-out: MIC P20, ATCC 90030, total population after 20 passages with the selecting drug, MIC of selecting drug): 1 µg/mL | MIC (C. krusei ATCC 6258; ATCC6258): 0.125 µg/mL | MIC (C. krusei ATCC 6258; ATCC6258, read-out: MIC P20): 0.125 µg/mL | Number of isolates at MIC 0.06 μg/mL ([3]; 24 h, pH 4): 1 | Number of isolates at MIC 0.125 μg/mL ([3]; 24 h, pH 4): 33 | Number of isolates at MIC 0.25 μg/mL ([3]; 24 h, pH 4): 23 | Number of isolates at MIC 0.5 μg/mL ([3]; 24 h, pH 4): 3 | Number of isolates at MIC 0.03 μg/mL ([3]; 24 h, pH 7): 43 | Number of isolates at MIC 0.06 μg/mL ([3]; 24 h, pH 7): 10 | Number of isolates at MIC 0.125 μg/mL ([3]; 24 h, pH 7): 2 | Number of isolates at MIC […] ([3]; 24 h, pH 7): 5 | Number of isolates at MIC 0.125 μg/mL ([3]; 48 h, pH 4): 6 | Number of isolates at MIC 0.25 μg/mL ([3]; 48 h, pH 4): 16 | Number of isolates at MIC 0.5 μg/mL ([3]; 48 h, pH 4): 34 | Number of isolates at MIC 1 μg/mL ([3]; 48 h, pH 4): 4 | Number of isolates at MIC 0.03 μg/mL ([3]; 48 h, pH 7): 29 | Number of isolates at MIC 0.06 μg/mL ([3]; 48 h, pH 7): 16 | Number of isolates at MIC 0.125 μg/mL ([3]; 48 h, pH 7): 9 | Number of isolates at MIC 0.25 μg/mL ([3]; 48 h, pH 7): 1 | Number of isolates at MIC 0.5 μg/mL ([3]; 48 h, pH 7): 1 | Number of isolates at MIC 1 μg/mL ([3]; 48 h, pH 7): 2 | Number of isolates at MIC […] ([3]; 48 h, pH 7): 2 | MIC90 ([3]; 48 h, pH 4): 0.5 µg/mL | MIC ([3]; 48 h, pH 4, fluconazole-resistant isolate 1, pH 4, 48 h, read-out: MIC): 0.5 µg/mL | MIC ([3]; 48 h, pH 4, fluconazole-resistant isolate 2, pH 4): 0.125 µg/mL | MIC ([3]; 48 h, pH 4, fluconazole-resistant isolate 3, pH 4, 48 h, read-out: MIC): 0.5 µg/mL | MIC ([3]; 48 h, pH 4, fluconazole-resistant isolate 4, pH 4, 48 h, read-out: MIC): 0.25 µg/mL | MIC ([3]; 48 h, pH 4, fluconazole-resistant isolate 6, pH 4, 48 h, read-out: MIC): 0.5 µg/mL | MIC ([3]; 48 h, pH 4, fluconazole-resistant isolate 7, pH 4, 48 h, read-out: MIC): 0.5 µg/mL | MIC ([3]; 48 h, pH 4, fluconazole-resistant isolate 9, pH 4, 48 h, read-out: MIC): 1 µg/mL | MIC90 ([3]; 48 h, pH 7): 0.125 µg/mL | MIC ([3]; 48 h, pH 7, fluconazole-resistant isolate 1, pH 7, 48 h, read-out: MIC): 0.03 µg/mL | MIC ([3]; 48 h, pH 7, fluconazole-resistant isolate 2, pH 7): 0.25 µg/mL | MIC ([3]; 48 h, pH 7, fluconazole-resistant isolate 3, pH 7, 48 h, read-out: MIC): 0.03 µg/mL | MIC ([3]; 48 h, pH 7, fluconazole-resistant isolate 4, pH 7, 48 h, read-out: MIC): 0.06 µg/mL | MIC ([3]; 48 h, pH 7, fluconazole-resistant isolate 5, pH 7): 0.125 µg/mL | MIC ([3]; 48 h, pH 7, fluconazole-resistant isolate 6, pH 7, 48 h, read-out: MIC): 0.03 µg/mL | MIC ([3]; 48 h, pH 7, fluconazole-resistant isolate 7, pH 7, 48 h, read-out: MIC): 0.03 µg/mL | MIC ([3]; 48 h, pH 7, fluconazole-resistant isolate 8, pH 7): 0.125 µg/mL | MIC ([3]; 48 h, pH 7, fluconazole-resistant isolate 9, pH 7, 48 h, read-out: MIC): 1 µg/mL | MIC ([3]; 48 h, pH 7, fluconazole-resistant isolate 10, pH 7): 0.125 µg/mL | MIC90 ([3]; 60 isolates, pH 4, 24 h, read-out: MIC90): 0.25 µg/mL | MIC90 ([3]; 60 isolates, pH 7, 24 h, read-out: MIC90): 0.06 µg/mL | MIC90 ([4]; 24 h, pH 4): 0.5 µg/mL | MIC90 ([4]; 24 h, pH 7): 0.125 µg/mL | MIC90 ([4]; 48 h, pH 4): 2 µg/mL | MIC90 ([4]; 48 h, pH 7): 0.125 µg/mL | Cumulative % of isolates inhibited at MIC 0.015 μg/mL (Candida albicans): (49.4) % | Cumulative % of isolates inhibited at MIC 0.03 μg/mL (Candida albicans): (85.7) %
